Results reported in patent US11324706B2, “Composition for inhibiting growth of breast cancer stem cells containing phenylacetaldehyde” (JEJU NATIONAL UNIVERSITY INDUSTRY-ACADEMIC COOPERATION …, priority 2016, dated 2022).
Entries after “also recorded” stand apart in the source; their conditions may differ.

Assays:
MDA-MB-231 cells = assay: Scratch migration assay; assay type: cell-based, human
Experimental: Scratch curing of MDA-MB-231 cells was imaged at […] with or without PAA treatment;
MDA-MB-231 cells were seeded on a 6-well plate to grow cells until confluence reached 90%. Scratch was created on the cell layer using a sterilized white micro-pipette tip. After washing with DMEM medium, breast cancer cells were treated with PAA or DMSO. 16 hours later, the scratch region was imaged with a 10× optical microscope.

[1] = system: MDA-MB-231 cell-derived mammospheres; assay: Mammosphere formation, MDA-MB-231-derived; assay type: cell-based, human; conditions: PAA 0.05 and 0.1 mM, 7 days
Experimental: The mammospheres were cultured together with PAA (0.05 and 0.1 mM) or DMSO. MCF-7 and MDA-MBB-231 cells were treated with PAA and DMSO during the culture period of 7 days.
Human breast cancer cells, i.e., MCF-7 and MDA-MB-231, were commercially obtained from American Type Culture Collection (ATCC; Manassas, Va., USA). MCF-7 and MDA-MB-231 cells were cultured in Dulbecco's modified essential medium (DMEM; Hyclone, Logan, Utah, USA) containing 10% fetal bovine serum (FBS; Hyclone), 100 U/mL of penicillin, and 100 μg/mL of streptomycin (Hyclone). The MCF-7 and MDA-MB-231 cells were maintained at 37° C. in a 5% CO2-containing humidified incubator. The cells were plated at a density of 1×10^6 on a 10 cm petri dish. […]
At 7 days of culture, the cell culture plate was disposed on a scanner (Epson Perfection V700 PHOTO, Epson Korea, Co, Seoul, Korea) to obtain an 8 bit gray scale image of mammospheres. […] The background signal of the image was negated using a critical algorithm and the selected image was automatically counted. Regarding the mammosphere formation analysis, formation efficiency of mammospheres (MFE, %) was determined in accordance with the number of mammospheres per well/the total number of cells plated per well×100.

mammospheres = assay: Growth of mammospheres (cell counting); assay type: cell-based
Experimental: PAA inhibits growth of mammospheres. Mammospheres treated with PAA and DMSO for 2 days were separated into single cells and the equal number of cells were seeded on a 6 cm dish. 24 hours after seeding, the cells were counted. At 2- and 3-days, the cells were counted three times and plotted by the mean of the number. The data was represented by mean±standard deviation (SD). * means P<0.05, as compared to DMSO-treated control group;
Accordingly, for PAA, the levels of ROSs in breast cancer stem cells were investigated. As a result, PAA induced ROS activity in MDA-MB-231 cells (FIG. 7B). Next, in order to identify whether or not PAA inhibits proliferation of mammospheres, the mammospheres were treated with PAA and the cell number of mammospheres was counted.

nuclear p65 = assay: Western blotting of mammosphere nuclear proteins, p65; assay type: cell-based, human; conditions: MCF-7-derived mammospheres
Experimental: The proteins isolated from mammospheres of PAA-treated MCF-7 were separated on 10% SDS-PAGE and transferred to a polyvinylidene difluoride membrane (Millipore, Bedford, Mass., USA). The membrane was blocked in 5% skim milk-containing PBS-Tween 20 (0.1%, v/v) for 30 minutes at room temperature. The blot was cultured at 4° C. in a blocking solution containing primary antibodies overnight. The used primary antibodies were as follows: Stat3, p65, Lamin B, and phospho-Stat3 (Cell Signaling, Beverly, Mass., USA). β-actin antibodies (Santa Cruz Biotechnology) were used as a loading control group. After washing with PBS-Tween 20 (0.1%, v/v), the blot was cultured in a horseradish peroxidase-conjugated secondary antibody and subjected to photosensitive treatment with a chemiluminescent detection kit (Santa Cruz Biotechnology).
In order to investigate cellular functions of PAA, STAT3 and NF-κB pathways were investigated in MCF-7-derived mammospheres subjected to treatment with PAA. As compared to the control group, PAA reduced phosphorylation of nuclear STAT3 proteins.

secreted IL-6 = assay: Western blot of secreted IL-6 in mammosphere culture solution; assay type: cell-based, human; conditions: culture solution of mammospheres
Description: PAA reduces extracellular IL-6 protein levels in mammosphere culture;
The secreted IL-6 is known to play a key role in the formation of mammospheres (Sansone P, Storci G, Tavolari S, Guarnieri T, Giovannini C, Taffurelli M, Ceccarelli C, Santini D, Paterini P, Marcu K B, Chieco P and Bonafe M. IL-6 triggers malignant features in mammospheres from human ductal breast carcinoma and normal mammary gland. J Clin Invest. 2007; 117(12):3988-4002). Accordingly, in order to investigate the amount of produced secreted IL-6, western blot analysis was conducted in a culture solution of mammospheres using IL-6 antibodies. […] The internal control group was used to count mammospheres before and after treatment with PAA.

HT-29 cells = assay: MTS analysis in human colorectal cancer cells; assay type: cell-based; conditions: HT-29, MTS, PAA at a concentration up to 2 mM
Experimental: Anti-proliferation effects of PAA in human colorectal cancer cell lines were measured by MTS analysis.
Next, in order to investigate anti-proliferation effects of PAA on human colorectal cancer cell lines, i.e., HT-29 cells, after treatment with PAA at different concentrations, MTS analysis was conducted.

With `O=CCc1ccccc1` [PAA, phenylacetaldehyde] the “migration of MDA-MB-231 cells” value (MDA-MB-231 cells) was “concentration-dependently inhibited”, the “number of primary mammospheres derived from MDA-MB-231 cells” value [1] was “reduced” and the apoptosis of mammospheres (mammospheres) was “induced apoptosis”. For the same compound, the proliferation of mammospheres (mammospheres; cell number counted after PAA treatment) was “greatly reduces”, the “protein levels of nuclear p65” value (nuclear p65) was “did not reduce” and the “production level of secreted IL-6” value (secreted IL-6) was “reduced”. The “growth (proliferation) of colorectal cancer cells” value (HT-29 cells) was “did not affect; also recorded: no significant proliferation inhibitory effects”.
